Patent publication US9738610B2, “Indazole derivatives and uses thereof” (Whitehead Institute for Biomedical Research, priority 2012, dated 2017)
In brackets after ≈: the same amount, converted by molar mass. Where two headings read alike, the source gives them in different places.

Columns and labels:
C. albicans CaCi-2 [1] = experiment: Secondary single-agent (no-fluconazole) activity assay; type: cell-based, Candida albicans; conditions: read-out: Target Potency (μM) Mean ± S.E.M CaCi-2^b IC50
How it was run: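 C. albicans CaCi-2 in RPMI synthetic defined medium with 1% Pen/Strep, starting OD600 0.00015, exposed to compound alone (no fluconazole) for 48 h at 37 °C without agitation. Growth read as Alamar Blue fluorescence (1:200 final) after 2 h at room temperature.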

C. albicans CaCi-8 = experiment: microbe, parasite or virus in culture; type: cell-based, Candida albicans; conditions: in the presence of fluconazole; read-out: Target Potency (μM) Mean ± S.E.M CaCi-8^a IC50
How it was run: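 Hits tested for chemosensitization of the fluconazole-resistant CaCi-8 strain, for inherent antifungal activity without fluconazole, and for mammalian fibroblast toxicity by fluorescence reporter. Geldanamycin plus fluconazole served as positive control; a Saccharomyces assay assigned mechanism to Hsp90, calcineurin or other pathways.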

Plasma protein binding = conditions: for Plasma Protein Binding: % bound in human plasma
PBS solubility = conditions: PBS; for solubility: aqueous buffer
Plasma stability = conditions: % remaining in human plasma after a 5-hour incubation
C. albicans CaCi-2 [2] = experiment: CaCi-2 growth inhibition in the presence of 8 μg/ml fluconazole (Alamar Blue); type: cell-based, Candida albicans; conditions: in the presence of fluconazole; read-out: Target Potency (μM) Mean ± S.E.M CaCi-2^a IC50
Protocol: Fluconazole was obtained from Sequoia Research Products, Ltd. and prepared in a 2 mg/ml stock solution in phosphate buffered saline (PBS). […] PBS (Catalog No. 21-040-CV) without calcium and magnesium was obtained from Cellgro. Penicillin/Streptomycin (Pen/Strep) was obtained from Gibco and prepared 100× in PBS.
RPMI medium (1×) was prepared by dissolving 10.4 g powdered medium in 800 ml water. A buffer of 34.52 g MOPS was added. While stirring, pH was adjusted to 7.0 with 10 N NaOH. Next, 10 ml uridine solution and 50 ml glucose solution were added. The final volume was adjusted to 1000 ml, and filter sterilized.
The following yeast strains were used in this study: C. albicans CaCi-2. Fungal inoculum was prepared as follows: 500 μl of strain was inoculated from cryopreserved stock into a 250-ml shaker flask containing 30 ml growth medium and shaken overnight at 30° C. The optical density (OD 600) of 1 ml fungal culture in a cuvette was read using a standard optical density reader (Eppendorf BioPhotometer Plus), with growth medium as a background blank. The desired volume of fungal inoculums was diluted to desired volume of fungal inoculums according to the following formula: (1/OD measured)×(Desired Final Volume of Inoculum)×0.3=Volume of fungal culture (μl) to add to desired volume of growth medium. When added to media in wells, this yields a calculated starting OD of the fungal inoculum of 0.00015.
Fluconazole stock solution was added to the fungal inoculum to achieve 8 μg/ml. Pen/Strep was added to the media to a 1% concentration (v/v). A Thermo Combi nL was used to dispense 20 μl/well of assay media into all wells. Geldanamycin was dispensed in positive control wells using Thermo Combi nL for a final concentration of 3 μM. Then, 100 nl of test compound was pinned from compound plates into assay plates using a CyBi-Well pin tool. A further 20 μl/well of culture was dispensed into the assay media in all wells. The plates were incubated in a humidified (90% humidity) Liconic incubator at 37° C. without agitation for 48 hours. Alamar Blue was diluted 1:40 in Ca/Mg-free PBS. To all plates, […] of the diluted Alamar Blue was added to the plates to a final dilution factor of 1:200. The plates were incubated for an additional 2 hours. Then, Relative Fluorescence Intensity (RFU) of each well was read on standard plate reader as a measure of relative fungal growth.

[3] = system: NIH-3T3 mammalian fibroblasts; experiment: Counterscreen mammalian cell toxicity assay (fibroblast toxicity); type: cell-based, murine; conditions: for ** CaCi-2 to anti-target fold selectivity: fibroblast IC50 over CaCi-2 IC50 with fluconazole; for IC50: footnote: in the absence of fluconazole, read-out: Anti-target Potency (μM) Mean ± S.E.M Fibroblasts^b IC50
yeast = target: T1, yeast (Saccharomyces cerevisiae, UniProt P00163); experiment: IC50 values and selectivity of Table 10A (target yeast, anti-target human cytochrome); type: biochemical
T1 construct: Mitochondrial membranes were prepared from yeast; endogenous in cells; host or cells: yeast (mitochondrial membranes)
Protocol: All measurements were performed in triplicate.

[4] = Candida albicans, CACI2, in the absence of fluconazole

| SMILES | IC50 (C. albicans CaCi-2 [1]; in the absence of fluconazole) [µM] | IC50 (C. albicans CaCi-8) [µM] | Plasma Protein Binding (Plasma protein binding) [%] | PBS Solubility (PBS solubility) | Plasma Stability (Plasma stability) | IC50 (C. albicans CaCi-2 [2]) [µM] | IC50 (C. albicans CaCi-2 [1]) [µM] | ** CaCi-2 to anti-target fold selectivity [3] | IC50 [3] [µM] | IC50 (C. albicans CaCi-2 [1]; [4]) [µM] | solubility (PBS solubility) [µM] | IC50 ([3]; Mus musculus, NIH3T3) [µM] | fraction unbound (Plasma protein binding; human, plasma) | IC50 (yeast; target is yeast) [µM] | Selectivity* (anti-target IC50)/(target IC50) (yeast; target yeast, anti-target human cytochrome) |
| --- | --- | --- | --- | --- | --- | --- | --- | --- | --- | --- | --- | --- | --- | --- | --- |
| CNC(=O)Cn1nc(-c2ccccc2)c2ccccc21 [Compound 13330955] | > 26 | > 26 | 93 | < 18.5 µM | > 99% |  |  |  |  |  |  |  |  |  |  |
| O=C(Cn1nc(-c2ccccc2)c2ccccc21)N1CCc2ccccc2C1 [Compound 20877557] | > 26 | > 26 | > 99 | < 1.0 µM | 97% |  |  |  |  |  |  |  |  |  |  |
| COC(=O)[C@@H](C)n1nc(-c2ccccc2)c2ccccc21.COC(=O)[C@H](C)n1nc(-c2ccccc2)c2ccccc21 [Compound 49835813] | > 26 | 15.8 | > 99 | < 1.0 µM | 61% | 6.56 ± 0.79 |  |  |  |  |  |  |  |  |  |
| COC(=O)Cn1nc(-c2ccccc2)c2ccc(F)cc21 [Compound 49835815] | > 26 | 8.34 | 97 |  | 1.1% | 5.1 |  |  |  |  |  |  |  |  |  |
| CCC(=O)Cn1nc(-c2ccccc2)c2ccccc21 [Compound 49835816] |  | > 26 | 99 | < 1.0 µM | 98% |  | > 26 |  |  |  |  |  |  |  |  |
| COC(=O)Cn1nc(-c2ccccc2)c2ccc(Cl)cc21 [Compound 49835818] | > 26 | 8.57 | 18 |  | 90% | 3.79 |  | 7.9 | 29.9 |  |  |  |  |  |  |
| COC(=O)Cn1nc(-c2cccc(C)c2)c2ccccc21 [Compound 49835823] | > 26 | 1.34 | 98 |  | 4.7% | 0.65 |  |  |  |  |  |  |  |  |  |
| COC(=O)Cn1nc(I)c2ccccc21 [Compound 49835832] |  | 18.8 | 98 | 143.5 µM | 1.3% |  |  |  | 0.53 |  |  |  |  |  |  |
| O=C1OCCC1n1nc(-c2ccccc2)c2ccccc21 (centres unmarked) [Compound 49835834] | > 26 | > 26 |  | PBS Solubility: <1.0 μM Plasma Protein Binding: ND Plasma Stability: <1.0% Purity (UPLC): 65% | PBS Solubility: <1.0 μM Plasma Protein Binding: ND Plasma Stability: <1.0% Purity (UPLC): 65% |  |  |  |  |  |  |  |  |  |  |
| COC(=O)CCn1nc(-c2ccccc2)c2ccccc21 [Compound 49835835] | > 26 | > 26 | > 99 | < 1.0 µM | 74% |  |  |  |  |  |  |  |  |  |  |
| COC(=O)Cn1nc(-c2ccccc2OC)c2ccccc21 [Compound 49835850] | > 26 | 10.2 | 92 |  | < 1.0% | 6.21 |  | 0.17 | 1.54 |  |  |  |  |  |  |
| COC(=O)Cn1ncc2ccccc21 [Compound 49835852] |  |  | < 1.0 |  | < 1.0% |  |  |  | 0.74 |  |  |  |  |  |  |
| COC(=O)Cn1nc(-c2ccc(C(F)(F)F)cc2)c2ccccc21 [Compound 49835854] | > 26 | > 26 | 97 |  | 17% |  |  |  | 0.68 |  |  |  |  |  |  |
| COC(=O)Cn1nc(-c2cncnc2)c2ccccc21 [Compound 49835858] |  |  |  |  | < 1.0% |  |  |  |  | > 26 | 155 (≈ 41.5 µg/mL) | > 6 |  |  |  |
| COC(=O)Cn1nc(-c2ccccc2C)c2ccccc21 [Compound 49835865] | > 26 | 7.25 | < 1.0 |  | < 1.0% | 5.5 |  |  |  |  |  |  |  |  |  |
| COC(=O)Cn1nc(-c2ccccc2)c2ccc(C)cc21 [Compound 49835872] | > 26 | 9.62 | 98 |  | 6.5% | 3.14 |  | 10 | 31.6 |  |  |  |  |  |  |
| COC(=O)Cn1nc(-c2ccccc2)c2cc(C)ccc21 [Compound 49835874] | > 26 | 5.33 | 95 |  | < 1.0% | 3.28 |  | 21 | 69.5 |  |  |  |  |  |  |
| COC(=O)Cn1nc(-c2ccc(F)cc2)c2ccccc21 [Compound 49835876] | > 26 | 10.2 | 93 |  | < 1.0% | 6.26 |  |  |  |  |  |  |  |  |  |
| COC(=O)Cn1nc(-c2cccc(OC)c2)c2ccccc21 [Compound 49835877] | > 26 | 1.21 | 95 |  | 2.6% | 0.44 |  |  | > 26 |  |  |  |  |  |  |
| CN(C)C(=O)Cn1nc(-c2ccccc2)c2ccccc21 [Compound 49835882] |  | > 26 | 98 | 325.5 µM | 98% |  | > 26 |  |  |  |  |  |  |  |  |
| COC(=O)Cn1nc(-c2ccccc2)c2cc(F)ccc21 [Compound 49835889] | > 26 | 6.98 | > 96 |  | 1.0% | 4.63 |  |  |  |  |  |  |  |  |  |
| COC(=O)Cn1nc(-c2cccc(F)c2)c2ccccc21 [Compound I-71] |  |  |  |  | < 1.0% |  |  | 9.1 |  | > 26 | < 1 | 12.9 | 0.04 | 0.25 | 80 |
